Data reported in patent US4122184A, “Benzimidazole insecticides” (priority 1977, dated 1978).
Where “and” joins values, the source holds several entries; their conditions need not be identical. Identical values can stand only once.

Experiments:
[1] = test system: Southern Armyworm; assay: Southern Armyworm Test; format: in vivo, Prodenia eridania (Lepidoptera); settings: 48 h
Protocol: Ten uniform Southern armyworm larvae about 1-1.5 cm. in length, grown on Henderson lima beans, are placed on excized bean leaves in petri dishes. The bean leaves are obtained and sprayed with the insecticide in the same way as are the snap bean leaves in the Mexican bean beetle test. The reference standards in this instance are leaves sprayed with 5 ml. 100 ppm DDT solution. Mortality counts are made 48 hours after spraying and again moribund larvae are counted as dead. Missing larvae which have probably been eaten are considered alive. The same rating scale is used as in the Mexican bean beetle test.

[2] = test system: Two-spotted Spider Mite; assay: Two-spotted Spider Mite test; format: in vivo, Tetranychus urticae (Acarina); settings: 48 h
Protocol: The procedure in this test is the same as that in the previous aphid test, except that about 100 two-spotted spider mites from a stock colony raised on squash plants are transferred to a cut squash cotyledon. The mortality is estimated 48 hours after spraying. The same rating scale is used.

[3] = test system: Milkweed Bug; assay: Milkweed Bug Test; format: in vivo, Oncopeltis fasciatus (Hemiptera); settings: 48 h
Summary of the method: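 Ten chilled adult milkweed bugs per cage sprayed with 5 ml test formulation at 10 psi, then fed and watered. Mortality, counting moribund as dead, scored 48 h after spraying; 500 ppm malathion as reference, unsprayed cages as controls.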

[4] = test system: Oriental Cockroach; assay: Oriental Roach Test; format: in vivo, Blatta orientalis (Orthoptera); settings: 24 h
Summary of the method: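 Ten late-instar (3-4 month) nymphs per cage, held at 70°-80° F., sprayed with 5 ml of insecticide formulation at a specified amount. Cockroaches kept unfed and unwatered; mortality counted 24 hours post-spray, with insects staying on the cage bottom after light shaking scored dead.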

[5] = test system: Boll Weevil; assay: Boll Weevil Test; format: in vivo, Anthonomus grandis (Coleoptera); settings: 48 h
Excerpt: The procedure is identical to that employed for the Mexican bean beetle and the Southern armyworm, except that 10 adult boll weevils are placed on cotton leaves that have been dipped into formulations of the test compounds. The same rating scale is used.

[6] = test system: Bean Leaf Beetle; assay: Field trial, stomach poison test; format: in vivo
Summary of the method: (§1)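 Leaves from infested plants sprayed (10 psi) or dipped in test compound at several concentrations, air-dried, then five or ten insects placed per dish, one or two replicates. Mortality scored 0 to 9 at 24, 48 and 72 h, averaged per concentration.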

[7] = test system: Southern Corn Rootworm Adults; assay: Field trial, stomach poison test; format: in vivo; parameters: key: mortality rating on a 0 to 9 scale
Summary of the method: as §1

[8] = test system: Striped Cucumber Beetle Adults; assay: Field trial, stomach poison test; format: in vivo; parameters: key: mortality rating on a 0 to 9 scale
Summary of the method: as §1

[9] = test system: Squash Bug Adults; assay: Field trial, contact poison test; format: in vivo; parameters: key: 0-9 rating: 0 = 0-10% mortality, 9 = 91-100% mortality
Summary of the method: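 Mortality after direct spraying was scored at 24, 48 and 72 hours where applicable, using a 0–9 rating tied to 10% bands. Plants bearing insects received atomized compound at 10 psi over a range of concentrations.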

[10] = test system: Yellow Mealworm Larvae; assay: Field trial, topical application; format: in vivo; parameters: key: 0 = 0-10% mortality, 9 = 91-100% mortality (0-9 scale)
Summary of the method: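 1 μL benzimidazole solution of set microgram content applied topically to larvae or adults. Mortality read at 24, 48 and 72 h where applicable, rated 0-9 (0 = 0-10%, 9 = 91-100%); values are average mortality per concentration.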

“mixture of methyl 2,6-bis(trifluoromethyl)-4-nitro-1-benzimidazolecarboxylate and methyl 2,5-bis(trifluoromethyl)-7-nitro-1-benzimidazolecarboxylate” was tested, and the mortality rating ([1]; 1000 ppm) was 1 (11-20), the mortality rating ([2]; 10 ppm) was 3 (31-40) and the mortality rating ([2]; 25 ppm) was 4 (41-50). For the same compound, the mortality rating ([2]; 50 ppm) was 9 (91-100), the mortality rating ([2]; 100 ppm) was 6 (61-70) and the mortality rating ([2]; 250 ppm) was 9 (91-100). The mortality rating ([2]; 500 ppm) was 9 (91-100), the mortality rating ([2]; 1000 ppm) was 9 (91-100) and the mortality rating ([3]; 25 ppm) was 5 (51-60). For the same compound, the mortality rating ([3]; 100 ppm) was 8 (81-90), the mortality rating ([3]; 250 ppm) was 9 (91-100) and the mortality rating ([3]; 500 ppm) was 9 (91-100). The mortality rating ([3]; 1000 ppm) was 9 (91-100), the mortality rating ([4]; 50 ppm) was 0 (0-10) and the mortality rating ([4]; 100 ppm) was 0 (0-10). The mortality rating ([4]; 250 ppm) was 5.5, the mortality rating ([4]; 500 ppm) was 9 (91-100) and the mortality rating ([4]; 1000 ppm) was 9 (91-100). For the same compound, the mortality rating ([5]; 5 ppm) was 0 (0-10), the mortality rating ([5]; 10 ppm) was 5.5 and the mortality rating ([5]; 25 ppm) was 8.5. The mortality rating ([5]; 50 ppm) was 9 (91-100), the mortality rating ([5]; 100 ppm) was 9 (91-100) and the mortality rating ([5]; 250 ppm) was 9 (91-100). The mortality rating ([5]; 500 ppm) was 9 (91-100), the mortality rating ([5]; 1000 ppm) was 9 (91-100) and the average mortality rating ([6]; 10 ppm) was 1. The average mortality rating ([6]; 25 ppm) was 0 (0-10 percent), the average mortality rating ([6]; 50 ppm) was 1 and the average mortality rating ([7]; 25 ppm) was 3 and 4. It also gave an average mortality rating ([7]; 50 ppm) of 4, an average mortality rating ([7]; 100 ppm) of 6 and an average mortality rating ([8]; 10 ppm) of 2. The average mortality rating ([8]; 25 ppm) was 0 (0-10 percent), the average mortality rating ([8]; 50 ppm) was 5 and the average mortality rating ([8]; 100 ppm) was 9 (91-100 percent mortality). For the same compound, the average mortality rating ([9]; 125 ppm) was 0 (0-10 percent), the average mortality rating ([9]; 250 ppm) was 0 (0-10 percent) and the average mortality rating ([9]; 500 ppm) was 2. For the same compound, the average mortality rating ([9]; 750 ppm) was 3, the average mortality rating ([10]; 0.03 μg/μl) was 2 and the average mortality rating ([10]; 0.07 μg/μl) was 3. The average mortality rating ([10]; 0.15 μg/μl) was 6.

With “mixture of phenyl 2,6-bis(trifluoromethyl)-4-nitro-1-benzimidazolecarboxylate and phenyl 2,5-bis(trifluoromethyl)-1-benzimidazolecarboxylate” the mortality rating ([1]; 250 ppm) was 1 (11-20), the mortality rating ([1]; 500 ppm) was 1 (11-20) and the mortality rating ([1]; 1000 ppm) was 1 (11-20). The mortality rating ([2]; 10 ppm) was 5.5, the mortality rating ([2]; 25 ppm) was 2 (21-30) and the mortality rating ([2]; 50 ppm) was 8 (81-90). For the same compound, the mortality rating ([2]; 100 ppm) was 9 (91-100), the mortality rating ([2]; 250 ppm) was 9 (91-100) and the mortality rating ([2]; 500 ppm) was 9 (91-100). The mortality rating ([2]; 1000 ppm) was 9 (91-100), the mortality rating ([3]; 250 ppm) was 1 (11-20) and the mortality rating ([3]; 500 ppm) was 9 (91-100). For the same compound, the mortality rating ([3]; 1000 ppm) was 9 (91-100), the mortality rating ([4]; 50 ppm) was 0 (0-10) and the mortality rating ([4]; 100 ppm) was “.5”. For the same compound, the mortality rating ([4]; 250 ppm) was 7 (71-80), the mortality rating ([4]; 500 ppm) was 6.5 and the mortality rating ([4]; 1000 ppm) was 5 (51-60). For the same compound, the mortality rating ([5]; 10 ppm) was 1 (11-20), the mortality rating ([5]; 25 ppm) was 5.5 and the mortality rating ([5]; 50 ppm) was 8 (81-90). For the same compound, the mortality rating ([5]; 100 ppm) was 9 (91-100), the mortality rating ([5]; 250 ppm) was 9 (91-100) and the mortality rating ([5]; 500 ppm) was 9 (91-100). The mortality rating ([5]; 1000 ppm) was 9 (91-100), the average mortality rating ([6]; 10 ppm) was 1 and the average mortality rating ([6]; 25 ppm) was 0 (0-10 percent). The average mortality rating ([6]; 50 ppm) was 0 (0-10 percent), the average mortality rating ([7]; 25 ppm) was 2 and 3 and the average mortality rating ([7]; 50 ppm) was 4 and 2. For the same compound, the average mortality rating ([7]; 100 ppm) was 6 and 8, the average mortality rating ([8]; 10 ppm) was 3 and the average mortality rating ([8]; 25 ppm) was 4. The average mortality rating ([8]; 50 ppm) was 4, the average mortality rating ([8]; 100 ppm) was 7 and the average mortality rating ([9]; 125 ppm) was 2. The average mortality rating ([9]; 250 ppm) was 2, the average mortality rating ([9]; 500 ppm) was 6 and the average mortality rating ([9]; 750 ppm) was 8. It also gave an average mortality rating ([10]; 0.03 μg/μl) of 3, an average mortality rating ([10]; 0.07 μg/μl) of 3 and an average mortality rating ([10]; 0.15 μg/μl) of 6.

In the case of CCCCCCOC(=O)n1c(C(F)(F)F)nc2c([N+](=O)[O-])cc(C(F)(F)F)cc21 [E, n-hexyl 2,6-bis(trifluoromethyl)-4-nitro-1-benzimidazolecarboxylate], the mortality rating ([1]; 500 ppm) is reported as 5.0, the mortality rating ([1]; 1000 ppm) is reported as 7.5 and the mortality rating ([2]; 5 ppm) is reported as “.5”. For the same compound, the mortality rating ([2]; 10 ppm) was 8.5, the mortality rating ([3]; 10 ppm) was “.5” and the mortality rating ([3]; 25 ppm) was 6.5. It also gave a mortality rating ([3]; 50 ppm) of 1.5, a mortality rating ([4]; 500 ppm) of 8.5 and a mortality rating ([5]; 25 ppm) of 6.5. For the same compound, the average mortality rating ([6]; 10 ppm) was 0 (0-10 percent), the average mortality rating ([6]; 25 ppm) was 1 and the average mortality rating ([6]; 50 ppm) was 0 (0-10 percent). For the same compound, the average mortality rating ([7]; 25 ppm) was 5, the average mortality rating ([7]; 50 ppm) was 5 and the average mortality rating ([7]; 100 ppm) was 5. The average mortality rating ([8]; 10 ppm) was 3, the average mortality rating ([8]; 25 ppm) was 1 and the average mortality rating ([8]; 50 ppm) was 5. The average mortality rating ([8]; 100 ppm) was 5, the average mortality rating ([9]; 125 ppm) was 0 (0-10 percent) and the average mortality rating ([9]; 250 ppm) was 2. The average mortality rating ([9]; 500 ppm) was 3, the average mortality rating ([9]; 750 ppm) was 6 and the average mortality rating ([10]; 0.03 μg/μl) was 2. It also gave an average mortality rating ([10]; 0.07 μg/μl) of 3 and an average mortality rating ([10]; 0.15 μg/μl) of 4.
